Data published in patent US20260125360A1, “HERBICIDAL IMIDAZOLE COMPOUNDS” (SYNGENTA CROP PROTECTION AG, priority 2022, published 2026).

Assays:
Assay type in all cases: in vivo
Settings in all cases: 250 g/ha, evaluated after 13 days
[1] = system: Echinochloa crus-galli (ECHCG); assay: Post-emergence herbicide glasshouse test
Protocol: (§1) Seeds of a variety of test species are sown in standard soil in pots Amaranthus palmeri (AMAPA), Amaranthus retoflexus (AMARE), Echinochloa crus-galli (ECHCG), Ipomoea hederacea (IPOHE)). After cultivation for one day (pre-emergence) or after 8 days cultivation (post-emergence) under controlled conditions in a glasshouse (at 24/16° C., day/night; 14 hours light; 65% humidity), the plants are sprayed with an aqueous spray solution derived from the formulation of the technical active ingredient in acetone/water (50:50) solution containing 0.5% Tween 20 (polyoxyethelyene sorbitan monolaurate, CAS RN 9005-64-5). Compounds are applied at 250 g/ha unless otherwise stated. The test plants are then grown in a glasshouse under controlled conditions in a glasshouse (at 24/16° C., day/night; 14 hours light; 65% humidity) and watered twice daily. After 13 days for pre and post-emergence, the test is evaluated for the percentage damage caused to the plant. The biological activities are shown in the following table on a five-point scale (5=81-100%; 4=61-80%; 3=41-60%; 2=21-40%; 1=0-20%).

[2] = system: Amaranthus retoflexus (AMARE); assay: Post-emergence herbicide glasshouse test
Protocol: as §1

[3] = system: Amaranthus palmeri (AMAPA); assay: Post-emergence herbicide glasshouse test
Protocol: as §1

[4] = system: Ipomoea hederacea (IPOHE); assay: Post-emergence herbicide glasshouse test
Protocol: as §1

[5] = system: Echinochloa crus-galli (ECHCG); assay: Pre-emergence herbicide glasshouse test
Protocol: as §1

[6] = system: Amaranthus retoflexus (AMARE); assay: Pre-emergence herbicide glasshouse test
Protocol: as §1

[7] = system: Amaranthus palmeri (AMAPA); assay: Pre-emergence herbicide glasshouse test
Protocol: as §1

[8] = system: Ipomoea hederacea (IPOHE); assay: Pre-emergence herbicide glasshouse test
Protocol: as §1

Row | Compound | percentage damage caused to the plant, ECHCG (five-point scale) [1] | percentage damage caused to the plant, AMARE (five-point scale) [2] | percentage damage caused to the plant, AMAPA (five-point scale) [3] | percentage damage caused to the plant, IPOHE (five-point scale) [4] | percentage damage caused to the plant, ECHCG (five-point scale) [5] | percentage damage caused to the plant, AMARE (five-point scale) [6] | percentage damage caused to the plant, AMAPA (five-point scale) [7] | percentage damage caused to the plant, IPOHE (five-point scale) [8]
1 | Cn1cnc(Cn2cc(C(F)(F)F)nc2-c2ccc(C(F)(F)F)cc2)n1 [Compound 1.003, 1-methyl-3-[[4-(trifluoromethyl)-2-[4-(trifluoromethyl)phenyl]imidazol-1-yl]methyl]-1,2,4-triazole] | 4 (4=61-80%) | 4 (4=61-80%) | 4 (4=61-80%) | 5 (5=81-100%) | 5 (5=81-100%) | 5 (5=81-100%) | 5 (5=81-100%) | 5 (5=81-100%)
2 | CCON=Cc1cn(Cc2cc(C)on2)c(-c2cnc(Cl)c(F)c2)n1 [Compound 1.179] | 1 (1=0-20%) | 3 (3=41-60%) | 3 (3=41-60%) | 1 (1=0-20%) | 1 (1=0-20%) | 4 (4=61-80%) | 5 (5=81-100%) | 1 (1=0-20%)
3 | Cc1nnc(Cn2cc(C(F)(F)F)nc2-c2ccc(F)c(F)c2)o1 [Compound 1.183] | 2 (2=21-40%) | 5 (5=81-100%) | 5 (5=81-100%) | 4 (4=61-80%) | 3 (3=41-60%) | 5 (5=81-100%) | 5 (5=81-100%) | 5 (5=81-100%)
4 | FC(F)(F)c1ccc(-c2nc(C(F)(F)F)cn2Cc2nsc(Cl)n2)cc1 [Compound 1.002] | 1 (1=0-20%) | 2 (2=21-40%) | 1 (1=0-20%) | 3 (3=41-60%) | 1 (1=0-20%) |  | 1 (1=0-20%) | 1 (1=0-20%)
5 | Cc1cc(Cn2cc(C(F)(F)F)nc2-c2ccc(S(C)(=O)=O)cc2)no1 [Compound 1.177] | 3 (3=41-60%) | 5 (5=81-100%) | 5 (5=81-100%) | 5 (5=81-100%) | 5 (5=81-100%) | 5 (5=81-100%) | 5 (5=81-100%) | 5 (5=81-100%)
6 | Cn1cc(Cn2cc(C(F)(F)F)nc2-c2ccc(C(F)(F)F)cc2)c(C(F)(F)F)n1 [Compound 1.014] | 1 (1=0-20%) | 1 (1=0-20%) | 1 (1=0-20%) | 1 (1=0-20%) | 1 (1=0-20%) | 1 (1=0-20%) | 1 (1=0-20%) | 1 (1=0-20%)
7 | CCCn1nnnc1Cn1cc(C(F)(F)F)nc1-c1ccc(Cl)nc1 [Compound 1.140] | 1 (1=0-20%) | 1 (1=0-20%) | 1 (1=0-20%) | 1 (1=0-20%) | 1 (1=0-20%) | 1 (1=0-20%) | 1 (1=0-20%) | 1 (1=0-20%)
8 | Cc1noc(Cn2cc(C(F)(F)F)nc2-c2ccc(F)c(F)c2)n1 [Compound 1.169] | 3 (3=41-60%) | 5 (5=81-100%) | 5 (5=81-100%) | 3 (3=41-60%) | 4 (4=61-80%) | 5 (5=81-100%) | 5 (5=81-100%) | 5 (5=81-100%)
9 | Cc1nc(Cn2cc(C(F)(F)F)nc2-c2cnc(F)c(Cl)c2)no1 [Compound 1.160] | 5 (5=81-100%) | 5 (5=81-100%) | 5 (5=81-100%) | 4 (4=61-80%) | 5 (5=81-100%) | 5 (5=81-100%) | 5 (5=81-100%) | 5 (5=81-100%)
10 | Cn1cnc(Cn2cc(C(F)(F)F)nc2-c2cnc(Cl)c(F)c2)n1 [Compound 1.018] | 5 (5=81-100%) | 5 (5=81-100%) | 5 (5=81-100%) | 4 (4=61-80%) | 5 (5=81-100%) | 5 (5=81-100%) | 5 (5=81-100%) | 5 (5=81-100%)
11 | CC(C)c1noc(Cn2cc(C(F)(F)F)nc2-c2ccc(Cl)nc2)n1 [Compound 1.139] | 1 (1=0-20%) | 1 (1=0-20%) | 1 (1=0-20%) | 1 (1=0-20%) | 1 (1=0-20%) | 1 (1=0-20%) | 1 (1=0-20%) | 1 (1=0-20%)
12 | Cc1noc(C)c1Cn1cc(C(F)(F)F)nc1-c1ccc(Cl)nc1 [Compound 1.141] | 1 (1=0-20%) | 1 (1=0-20%) | 1 (1=0-20%) | 1 (1=0-20%) | 1 (1=0-20%) | 1 (1=0-20%) | 1 (1=0-20%) | 1 (1=0-20%)
13 | Cc1cc(Cn2cc(C(F)(F)F)nc2-c2cnc(Cl)c(F)c2)no1 [Compound 1.025] | 4 (4=61-80%) | 5 (5=81-100%) | 4 (4=61-80%) | 2 (2=21-40%) | 4 (4=61-80%) | 5 (5=81-100%) | 5 (5=81-100%) | 4 (4=61-80%)
14 | Cn1ccc(Cn2cc(C(F)(F)F)nc2-c2ccc(S(C)(=O)=O)cc2)n1 [Compound 1.171] | 1 (1=0-20%) | 1 (1=0-20%) | 1 (1=0-20%) | 2 (2=21-40%) | 1 (1=0-20%) | 4 (4=61-80%) | 4 (4=61-80%) | 3 (3=41-60%)
15 | Cc1nc(Cn2cc(C(F)(F)F)nc2-c2ccc(C(F)(F)F)cc2)co1 [Compound 1.012] | 1 (1=0-20%) | 1 (1=0-20%) | 1 (1=0-20%) | 3 (3=41-60%) | 1 (1=0-20%) | 2 (2=21-40%) |  | 1 (1=0-20%)
